From article PMC12320230, “BAY11-7082 Targets RNF25 to Reverse TRIP4 Ubiquitination-dependent NF-κB Activation and Apoptosis Resistance in Renal Cell Carcinoma” (International Journal of Biological Sciences, 2025)

Target: T1, RNF25 (Homo sapiens, UniProt Q96BH1)
T1 construct: His-RNF25 used in ubiquitination assay
T1 sequence (Q96BH1 1-459): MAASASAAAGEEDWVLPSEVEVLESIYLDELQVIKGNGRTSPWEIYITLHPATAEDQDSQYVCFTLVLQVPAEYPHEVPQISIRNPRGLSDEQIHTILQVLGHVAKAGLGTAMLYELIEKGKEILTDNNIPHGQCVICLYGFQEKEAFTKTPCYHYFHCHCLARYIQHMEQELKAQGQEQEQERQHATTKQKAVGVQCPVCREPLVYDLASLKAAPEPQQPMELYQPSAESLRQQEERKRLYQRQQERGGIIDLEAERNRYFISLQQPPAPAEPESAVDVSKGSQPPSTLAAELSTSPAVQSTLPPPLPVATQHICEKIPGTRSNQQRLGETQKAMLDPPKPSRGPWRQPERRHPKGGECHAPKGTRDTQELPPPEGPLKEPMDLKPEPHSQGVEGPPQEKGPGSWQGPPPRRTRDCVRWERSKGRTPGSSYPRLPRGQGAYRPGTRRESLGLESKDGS
Experiment: isothermal titration calorimetry
Format: binding

- Kd: 950 nM
Structure (SMILES): Cc1ccc(S(=O)(=O)/C=C/C#N)cc1 [BAY11-7082]
